According to ChEMBL document CHEMBL1201862, “PubChem BioAssay data set” (2004):
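Where inhibition never reached the appropriate level, the endpoint shown equals the highest concentration tested. Otherwise, values were interpolated linearly from a five-concentration, 48-hour dose response in 96-well plates. GI50 marks 50% less growth.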 Active and inactive are the calls of the source. Rule as the data show it: active = GI50 up to about 1.1 µM and inactive = higher.

Legend:
Assay in all cases: DTP human tumour cell line panel, 48 h
[1] = test system: SK-OV-3
[2] = test system: KM12
[3] = test system: HL-60
[4] = test system: ACHN
[5] = test system: OVCAR-4
[6] = test system: 786-0
[7] = test system: OVCAR-5
[8] = test system: EKVX
[9] = test system: UO-31
[10] = test system: M14
[11] = test system: NCI-H23
[12] = test system: A498
[13] = test system: UACC-62
[14] = test system: DU-145
[15] = test system: SF-539
[16] = test system: OVCAR-8
[17] = test system: SR
[18] = test system: K562
[19] = test system: MOLT-4
[20] = test system: HCC 2998

Structure (SMILES) | GI50 [1] | GI50 [2] | GI50 [3] | GI50 [4] | GI50 [5] | GI50 [6] | GI50 [7] | GI50 [8] | GI50 [9] | GI50 [10] | GI50 [11] | GI50 [12] | GI50 [13] | GI50 [14] | GI50 [15] | GI50 [16] | GI50 [17] | GI50 [18] | GI50 [19] | GI50 [20]
COc1cc2nc(-c3cccs3)nc(Cl)c2cc1OC | > 100 µM (inactive) | > 100 µM (inactive) | > 100 µM (inactive) | > 100 µM (inactive) | 52.5 µM (inactive) | > 100 µM (inactive) | > 100 µM (inactive) | 18.6 µM (inactive) | > 100 µM (inactive) | > 100 µM (inactive) | > 100 µM (inactive) | 19.8 µM (inactive) | > 100 µM (inactive) | > 100 µM (inactive) | > 100 µM (inactive) | > 100 µM (inactive) | 0.339 µM (active) | 69.5 µM (inactive) | – | –
CC(C)=C1C2CC3(C)CCC2(C)CCC13.CC1=CCC2C3(C)CCC2(C(C)C)C1C3 (stereo not drawn) | > 100 µM (inactive) | 19.5 µM (inactive) | 24.2 µM (inactive) | 20.3 µM (inactive) | 26.1 µM (inactive) | 21.5 µM (inactive) | 18.9 µM (inactive) | 21.6 µM (inactive) | 26.7 µM (inactive) | 20.1 µM (inactive) | 38.3 µM (inactive) | 34 µM (inactive) | 64.1 µM (inactive) | 29.4 µM (inactive) | 27.4 µM (inactive) | 17.3 µM (inactive) | – | 31.4 µM (inactive) | 31.9 µM (inactive) | 23.1 µM (inactive)
Nc1cc2[nH]c(=O)c3cc(Cl)ccc3c2cc1Cl | 3.98 µM (inactive) | 15.1 µM (inactive) | 32.4 µM (inactive) | 6.59 µM (inactive) | 31.9 µM (inactive) | 14.8 µM (inactive) | 15.6 µM (inactive) | 2.52 µM (inactive) | 10.2 µM (inactive) | 36.8 µM (inactive) | 15.8 µM (inactive) | – | 16.7 µM (inactive) | 12 µM (inactive) | 12.2 µM (inactive) | 3 µM (inactive) | 2.44 µM (inactive) | 23 µM (inactive) | 4.11 µM (inactive) | 23.7 µM (inactive)
CC1(C)O[C@@H](CBr)C[C@H](C[C@H]2C[C@@H](O)C[C@@H](CCOCc3ccccc3)O2)O1 | 18.1 µM (inactive) | 21.5 µM (inactive) | – | 23.2 µM (inactive) | 21.6 µM (inactive) | 19.4 µM (inactive) | 18.7 µM (inactive) | 17.8 µM (inactive) | 20.7 µM (inactive) | 23.5 µM (inactive) | 16.3 µM (inactive) | 23 µM (inactive) | 18.4 µM (inactive) | 25.4 µM (inactive) | – | 21.5 µM (inactive) | 27.7 µM (inactive) | 40.2 µM (inactive) | 47.1 µM (inactive) | 24.6 µM (inactive)
CC(=O)Nc1cc(C(=O)Nc2cc(C(=O)Nc3cc(C(=O)Nc4cc(C(=O)Nc5cc(C(=O)NCCC(=O)NCCCN(C)C)n(C)c5)n(C)c4)n(C)c3)n(C)c2)n(C)c1 | > 100 µM (inactive) | 23.6 µM (inactive) | 41.2 µM (inactive) | > 100 µM (inactive) | > 100 µM (inactive) | 63.7 µM (inactive) | > 100 µM (inactive) | > 100 µM (inactive) | > 100 µM (inactive) | > 100 µM (inactive) | > 100 µM (inactive) | > 100 µM (inactive) | – | > 100 µM (inactive) | 44.5 µM (inactive) | > 100 µM (inactive) | – | 58.7 µM (inactive) | 38.9 µM (inactive) | 50.4 µM (inactive)
CC(C)(C)C(=O)C(CC(=O)c1ccccc1)C(=O)C(C)(C)C | > 100 µM (inactive) | > 100 µM (inactive) | > 100 µM (inactive) | > 100 µM (inactive) | > 100 µM (inactive) | > 100 µM (inactive) | > 100 µM (inactive) | > 100 µM (inactive) | > 100 µM (inactive) | > 100 µM (inactive) | > 100 µM (inactive) | > 100 µM (inactive) | – | > 100 µM (inactive) | > 100 µM (inactive) | > 100 µM (inactive) | – | > 100 µM (inactive) | > 100 µM (inactive) | > 100 µM (inactive)
N#CC(C#N)=C1C(=O)NC(N)=C1C#N | > 100 µM (inactive) | > 100 µM (inactive) | > 100 µM (inactive) | > 100 µM (inactive) | > 100 µM (inactive) | > 100 µM (inactive) | > 100 µM (inactive) | > 100 µM (inactive) | > 100 µM (inactive) | > 100 µM (inactive) | > 100 µM (inactive) | > 100 µM (inactive) | > 100 µM (inactive) | > 100 µM (inactive) | – | > 100 µM (inactive) | – | > 100 µM (inactive) | > 100 µM (inactive) | > 100 µM (inactive)
